# Columns and labels:
# [1] = Rate of dissolution of rebaudioside A forms in H2O at 25° C.; type: physicochemical
# [2] = type: physicochemical
# Procedure: A solution of rebaudioside A (>97% pure by HPLC) was prepared in double distilled water (12.5 gm in 50 mL, 25% concentration) by stirring the mixture at 40° C. for 5 minutes. An amorphous form of rebaudioside A was formed by immediately using the clear solution for spray drying with the Lab-Plant spray drier SD-04 instrument (Lab-Plant Ltd., West Yorkshire, U.K.). The solution was fed through the feed pump into the nozzle atomizer which atomized it into a spray of droplets with the help of a constant flow of nitrogen/air. […] This dry powder (11-12 g, H2O 6.74%) was discharged continuously from the drying chamber and was collected in a bottle.
# [3] = Sensory evaluation of sweetness linger and sugar-like taste by expert panel; type: in vivo; parameters: key: 0: no sweetness linger; 1: very slight sweetness linger; 2: slight sweetness linger; 3: moderate sweetness linger; 4: moderately high sweetness linger; 5: high sweetness linger
# Procedure: As used herein, the phrases “sugar-like characteristic,” “sugar-like taste,” “sugar-like sweet,” “sugary,” and “sugar-like” are synonymous. […] These characteristics are dimensions in which the taste of sucrose is different from the tastes of natural and synthetic high-potency sweeteners. Whether or not a characteristic is more sugar-like is determined by expert sensory panel assessments of sugar and compositions comprising at least one natural and/or synthetic high-potency sweetener, both with and without a sweet taste improving composition. Such assessments quantify similarities of the characteristics of compositions comprising at least one natural and/or synthetic high-potency sweetener, both with and without a sweet taste improving composition, with those comprising sugar. Suitable procedures for determining whether a composition has a more sugar-like taste are well known in the art.
# In a particular embodiment, a panel of assessors is used to measure the reduction of sweetness linger. […] A decrease in score for a time point measured after the sample has cleared the mouth indicates there has been a reduction in sweetness perception. […]
# [4] = Sweetness level as sucrose equivalent
SMILES,"Rate of dissolution in H2O at 25° C. ([1]; H2O, 25° C.)",Rate of dissolution in H2O at 25° C. ([1]; in words),Solubility in water [2],"Sweetness linger rating ([3]; control: 400 ppm REBA in citric acid/potassium citrate composition, no additive)","Sweetness linger rating ([3]; control: 500 ppm REBA in carbon-treated water, phosphoric acid pH 2.4-2.5, no additive)",Sucrose equivalent ([4]; 180 ppm rebaudioside A in diluted beverage),Sucrose equivalent ([4]; 400 ppm REBA)
"C=C1C[C@@]23CC[C@H]4[C@@](C)(CCC[C@@]4(C)C(=O)O[C@@H]4O[C@H](CO)[C@@H](O)[C@H](O)[C@H]4O)[C@@H]2CC[C@]1(O[C@@H]1O[C@H](CO)[C@@H](O)[C@H](O[C@@H]2O[C@H](CO)[C@@H](O)[C@H](O)[C@H]2O)[C@H]1O[C@@H]1O[C@H](CO)[C@@H](O)[C@H](O)[C@H]1O)C3 [Form 1, rebaudioside A]",(<0.2%/ %/60 minutes,Very low,–,–,–,–,–
"C=C1C[C@@]23CC[C@H]4[C@@](C)(CCC[C@@]4(C)C(=O)O[C@@H]4O[C@H](CO)[C@@H](O)[C@H](O)[C@H]4O)[C@@H]2CC[C@]1(O[C@@H]1O[C@H](CO)[C@@H](O)[C@H](O[C@@H]2O[C@H](CO)[C@@H](O)[C@H](O)[C@H]2O)[C@H]1O[C@@H]1O[C@H](CO)[C@@H](O)[C@H](O)[C@H]1O)C3 [Form 2, rebaudioside A]",(<30%/ %/5 minutes,Intermediate,–,–,–,–,–
"C=C1C[C@@]23CC[C@H]4[C@@](C)(CCC[C@@]4(C)C(=O)O[C@@H]4O[C@H](CO)[C@@H](O)[C@H](O)[C@H]4O)[C@@H]2CC[C@]1(O[C@@H]1O[C@H](CO)[C@@H](O)[C@H](O[C@@H]2O[C@H](CO)[C@@H](O)[C@H](O)[C@H]2O)[C@H]1O[C@@H]1O[C@H](CO)[C@@H](O)[C@H](O)[C@H]1O)C3 [Form 3, rebaudioside A]",(>30%/ %/5 minutes,High,–,–,–,–,–
"C=C1C[C@@]23CC[C@H]4[C@@](C)(CCC[C@@]4(C)C(=O)O[C@@H]4O[C@H](CO)[C@@H](O)[C@H](O)[C@H]4O)[C@@H]2CC[C@]1(O[C@@H]1O[C@H](CO)[C@@H](O)[C@H](O[C@@H]2O[C@H](CO)[C@@H](O)[C@H](O)[C@H]2O)[C@H]1O[C@@H]1O[C@H](CO)[C@@H](O)[C@H](O)[C@H]1O)C3 [Form 4, rebaudioside A]",(>35.0%/ %/5 minutes,High,> 35.0%,–,–,–,–
"C=C1C[C@@]23CC[C@H]4[C@@](C)(CCC[C@@]4(C)C(=O)O[C@@H]4O[C@H](CO)[C@@H](O)[C@H](O)[C@H]4O)[C@@H]2CC[C@]1(O[C@@H]1O[C@H](CO)[C@@H](O)[C@H](O[C@@H]2O[C@H](CO)[C@@H](O)[C@H](O)[C@H]2O)[C@H]1O[C@@H]1O[C@H](CO)[C@@H](O)[C@H](O)[C@H]1O)C3 [REBA, rebaudioside A]",–,–,–,5,5,5 % sucrose,8 g sucrose

# Reference: patent publication US8435587B2, “High-potency sweetener composition with long-chain primary aliphatic saturated alcohol and compositions sweetened therewith” (The Coca-Cola Company, priority 2005, dated 2013)
